Source: PMC4696824 (PLoS ONE, 2015)

Assays:
[1] = target: T1, cathepsin B-like cysteine peptidase (DCcathB) (Diaphorina citri, UniProt A0A0U4DX43); experiment: fluorogenic inhibition assay, Z-F-R-AMC substrate, purified recombinant enzyme; assay type: biochemical
T1 construct: mature peptide residues 70 to 374
T1 sequence (A0A0U4DX43 70-374): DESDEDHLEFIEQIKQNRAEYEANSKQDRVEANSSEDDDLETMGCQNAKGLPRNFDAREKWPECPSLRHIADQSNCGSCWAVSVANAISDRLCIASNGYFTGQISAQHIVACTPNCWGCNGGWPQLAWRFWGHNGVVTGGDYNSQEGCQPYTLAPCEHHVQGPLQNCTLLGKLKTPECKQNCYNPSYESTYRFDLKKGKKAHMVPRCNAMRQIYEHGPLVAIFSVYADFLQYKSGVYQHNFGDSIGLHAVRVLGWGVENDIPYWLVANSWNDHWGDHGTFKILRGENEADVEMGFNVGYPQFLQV

[2] = substrate: Cc1cc(=O)oc2cc(NC(=O)[C@H](CCCNC(=N)N)NC(=O)[C@H](CCCNC(=N)N)NC(=O)OCc3ccccc3)ccc12; experiment: fluorogenic substrate hydrolysis, Km, purified recombinant enzyme; assay type: biochemical, Diaphorina citri
[3] = substrate: Cc1cc(=O)oc2cc(NC(=O)[C@H](CCCNC(=N)N)NC(=O)[C@H](Cc3ccccc3)NC(=O)OCc3ccccc3)ccc12; experiment: as above; assay type: biochemical, Diaphorina citri

## CCCNC(=O)[C@H]1O[C@@H]1C(=O)N[C@H](C(=O)N1CCC[C@H]1C(=O)O)[C@@H](C)CC [CA-074, N-(l-3-trans-propylcarbamoyloxirane-2-carbonyl)-L-isoleucyl-L-proline]
[1]
  IC50: 0.095 nM

## CC(C)C[C@H](NC(=O)[C@H]1O[C@@H]1C(=O)O)C(=O)NCCCCN=C(N)N [E-64, L-trans-Epoxysuccinyl-leucylamido(4-guanidino)butane]
[1]
  IC50: 14 nM

B1: cathepsin B-like cysteine peptidase (DCcathB) (Diaphorina citri) (protein)
chain: DESDEDHLEFIEQIKQNRAEYEANSKQDRVEANSSEDDDLETMGCQNAKGLPRNFDAREKWPECPSLRHIADQSNCGSCWAVSVANAISDRLCIASNGYFTGQISAQHIVACTPNCWGCNGGWPQLAWRFWGHNGVVTGGDYNSQEGCQPYTLAPCEHHVQGPLQNCTLLGKLKTPECKQNCYNPSYESTYRFDLKKGKKAHMVPRCNAMRQIYEHGPLVAIFSVYADFLQYKSGVYQHNFGDSIGLHAVRVLGWGVENDIPYWLVANSWNDHWGDHGTFKILRGENEADVEMGFNVGYPQFLQV
notes: mature peptide residues 70 to 374
[2]
  Km: 6.13 µM
[3]
  Km: 23.5 µM
